Assay results: EP0713875B1, “Sulfonamides” (F. Hoffmann-La Roche AG, priority 1994, dated 1996)

What was measured:
[1] = tested on: isolierten Aortenringen der Ratte; test: Inhibition of endothelin-induced contractions in isolated rat aortic rings; type: cell-based, Wistar-Kyoto-Ratten; conditions: for Kb: Rattus norvegicus, 10 min, endothelium-denuded thoracic aorta rings, 10 min incubation with test compound, cumulative doses of Endothelin-1, text calls the values pA2 = log(DR-1)-log(antagonist concentration), read-out: Dosisverhältnis (Rechtsverschiebung) (converted)
Method: II. Hemmung Endothelin-induzierter Kontraktionen an isolierten Aortenringen der Ratte
Aus der Thoraxaorta von erwachsenen Wistar-Kyoto-Ratten wurden Ringe von 5 mm Länge herausgeschnitten. Das Endothel wurde durch leichtes Reiben der Innenfläche entfernt. Jeder Ring wurde bei 37°C in 10 ml Krebs-Henseleit-Lösung unter Begasung mit 95% O2 und 5% CO2 in ein isoliertes Bad eingetaucht. Die isometrische Spannung der Ringe wurde gemessen. Die Ringe wurden auf eine Vorspannung von 3 g gedehnt. Nach 10 Minuten Inkubation mit der Testverbindung oder Vehikel wurden kumulative Dosen von Endothelin-1 zugegeben. Die Aktivität der Testverbindung wurde ermittelt durch die zu beobachtende Rechtsverschiebung der Dosis-Wirkungskurve von Endothelin-1 in gegenwart verschiedener Konzentrationen an Antagonist. Diese Rechtsverschiebung (oder auch "dose ratio", DR) entspricht dabei dem Quotienten aus den EC50-Werten von Endothelin-1 in Gegenwart und in Abwesenheit von Antagonist, wobei der EC50-Wert die für eine halbmaximale Kontraktion erforderliche Endothelin-Konzentration bezeichnet.
Aus der "dose ratio" DR wurde mittels eines Computerprogramms für jede einzelne Dosis-Wirkungskurve der entsprechende PA2-Wert nach untenstehender Gleichung berechnet, welcher ein Mass für die Aktivität der Testverbindung darstellt. pA2 = log(DR-1)-log(Antagonist-Konzentration) [formula]
Die EC50 von Endothelin in Abwesenheit von Testverbindungen ist 0,3 nM.
Die mit Verbindungen der Formel I so erhaltenen Werte für pA2 sind in Tabelle 2 angegeben. Tabelle 2

humanen ETA-Rezeptor = target: T1, humanen ETA-Rezeptor (Homo sapiens, UniProt P25101); test: Inhibition of endothelin binding at the recombinant ETA receptor (125I-endothelin, membranes of baculovirus-infected insect cells); conditions: concentration required to inhibit 50% of the specific binding of 125I-Endothelin; incubation 2 h at 20°C or 24 h at 4°C
T1 construct: made in house; host or cells: insect cells (baculovirus expression system); membrane preparation
T1 sequence (P25101 21-427): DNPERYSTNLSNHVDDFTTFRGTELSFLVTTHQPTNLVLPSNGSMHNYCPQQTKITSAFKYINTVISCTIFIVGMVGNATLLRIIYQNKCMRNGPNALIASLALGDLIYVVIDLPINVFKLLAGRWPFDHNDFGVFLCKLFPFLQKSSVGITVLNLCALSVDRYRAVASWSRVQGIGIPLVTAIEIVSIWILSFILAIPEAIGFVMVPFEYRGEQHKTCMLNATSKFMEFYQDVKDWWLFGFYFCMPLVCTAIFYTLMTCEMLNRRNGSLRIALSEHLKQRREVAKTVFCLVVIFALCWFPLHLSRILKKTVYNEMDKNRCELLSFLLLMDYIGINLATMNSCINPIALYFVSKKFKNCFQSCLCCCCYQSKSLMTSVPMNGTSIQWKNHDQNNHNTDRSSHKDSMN
Method: I: Hemmung der Endothelin-Bindung am recombinanten ETA-Rezeptor
Baculovirus-infizierte Insektenzellen aus einem 23 l Fermenter werden 60 Stunden nach der Infektion abzentrifugiert (3 000 x g, 15 Minuten, 4°C), in Tris-Puffer (5 mM, pH 7.4, 1 mM MgCl2) resuspendiert und erneut zentrifugiert. Nach erneuter Resuspension und Zentrifugation werden die Zellen in 800 ml des gleichen Puffers suspendiert und bei -120°C eingefroren. Der Aufbruch der Zellen erfolgt beim Auftauen der Suspension in diesem hypotonen Puffergemisch. Nach wiederholtem Gefrier/Auftau-Zyklus wird die Suspension homogenisiert und zentrifugiert (25 000 x g, 15 Minuten, 4°C). Nach Suspension in Tris-Puffer (75 mM, pH 7.4, 25mM MgCl2, 250 mM Saccharose) werden 1 ml Aliquots (Proteingehalt ca. 3.5 mg/ml) bei -85°C aufbewahrt.
Für den Bindungs-Assay werden die eingefrorenen Membranpräparate aufgetaut und nach 10 Minuten Zentrifugieren mit 25000 g bei 20°C in Assay-Puffer (50 mM Tris-Puffer pH 7.4, enthaltend 25 mM MnCl2, 1 mM EDTA und 0,5% Rinderserumalbumin) resuspendiert. […] Die Inkubation wird 2 Stunden bei 20°C oder 24 Stunden bei 4°C durchgeführt. Die Trennung von freiem und Membran-gebundenen Radioliganden wird durch Filtration über Glasfaserfilter vorgenommen.

Molecule: COc1ccccc1Oc1c(NS(=O)(=O)c2ccc(C)cn2)nc(N2CCOCC2)nc1OCCOC(=O)Nc1ccccn1 [Beispiel 34, Pyridin-2-yl-carbaminsäure 2-[5-(2-methoxy-phenoxy)-6-(5-methyl-pyridin-2-ylsulfonylamino)-2-morpholin-4-yl-pyrimidin-4-yloxy]-ethylester]
- Kb [1]: 0.2 nM
- IC50 (humanen ETA-Rezeptor): 0.3 nM

Molecule: COc1ccccc1Oc1c(NS(=O)(=O)c2ccc(C(C)C)cn2)nc(N2CCOCC2)nc1OCCOC(=O)Nc1ccccn1 [Beispiel 51, Pyridin-2-ylcarbaminsäure 2-[6-(5-isopropylpyridin-2-ylsulfonylamino)-5-(2-methoxy-phenoxy)-2-morpholin-4-yl-pyrimidin-4-yloxy]ethylester]
- Kb [1]: 0.631 nM
- IC50 (humanen ETA-Rezeptor): 0.4 nM

Molecule: Endothelin [reference compound]
- EC50 ([1]; endothelin concentration required for half-maximal contraction, without antagonist, read-out: EC50 von Endothelin in Abwesenheit von Testverbindungen): 0.3 nM
